≈ marks a conversion by molar mass, not a printed value.
Legend:
Candida albicans [1] = assay: Additive antifungal activity against Candida albicans ATCC MYA-2310 assessed as fractional inhibitory concentration index measured for 72 hrs in presence of voriconazole; assay type: functional
Candida albicans [2] = assay: Synergistic antifungal activity against Candida albicans ATCC 64124 assessed as compound MIC measured after 48 hrs in presence of itraconazole by checkboard based microplate reader analysis; assay type: functional
Candida albicans [3] = assay: Synergistic antifungal activity against Candida albicans ATCC 64124 assessed as compound MIC measured after 48 hrs in presence of posaconazole by checkboard based microplate reader analysis; assay type: functional
Candida albicans [4] = assay: Additive antifungal activity against Candida albicans ATCC 64124 assessed as fractional inhibitory concentration index measured for 72 hrs in presence of itraconazole; assay type: functional
Candida albicans [5] = assay: Synergistic antifungal activity against Candida albicans ATCC 64124 assessed as compound MIC measured after 48 hrs in presence of voriconazole by checkboard based microplate reader analysis; assay type: functional
Candida albicans [6] = assay: Antifungal activity against Candida albicans ATCC MYA-2310 measured after 48 hrs by broth microdilution analysis; assay type: functional
Nakaseomyces glabratus [7] = assay: Additive antifungal activity against Candida glabrata ATCC 2001 assessed as fractional inhibitory concentration index measured for 72 hrs in presence of voriconazole; assay type: functional
Candida albicans [8] = assay: Synergistic antifungal activity against Candida albicans ATCC 10231 assessed as compound MIC measured after 48 hrs in presence of posaconazole by checkboard based microplate reader analysis; assay type: functional
Candida albicans [9] = assay: Partial synergistic antifungal activity against Candida albicans ATCC 64124 assessed as fractional inhibitory concentration index measured for 72 hrs in presence of voriconazole; assay type: functional
Candida albicans [10] = assay: Additive antifungal activity against Candida albicans ATCC 90819 assessed as fractional inhibitory concentration index measured for 72 hrs in presence of voriconazole; assay type: functional
Candida albicans [11] = assay: Antifungal activity against Candida albicans ATCC 10231 measured after 48 hrs by broth microdilution analysis; assay type: functional
Candida albicans [12] = assay: Antifungal activity against Candida albicans ATCC MYA-2876 measured after 48 hrs by broth microdilution analysis; assay type: functional
Candida albicans [13] = assay: Additive antifungal activity against Candida albicans ATCC MYA-2310 assessed as fractional inhibitory concentration index measured for 72 hrs in presence of posaconazole; assay type: functional
Candida albicans [14] = assay: Additive antifungal activity against Candida albicans ATCC MYA-1237 assessed as fractional inhibitory concentration index measured for 72 hrs in presence of voriconazole; assay type: functional
Aspergillus terreus [15] = assay: Antifungal activity against Aspergillus terreus ATCC MYA-3633 measured after 48 hrs by broth microdilution analysis; assay type: functional
Candida albicans [16] = assay: Additive antifungal activity against Candida albicans MYA-1003 assessed as fractional inhibitory concentration index measured for 72 hrs in presence of voriconazole
Candida albicans [17] = assay: Additive antifungal activity against Candida albicans ATCC MYA-1237 assessed as fractional inhibitory concentration index measured for 72 hrs in presence of posaconazole; assay type: functional
Candida albicans [18] = assay: Additive antifungal activity against Candida albicans ATCC MYA-2876 assessed as fractional inhibitory concentration index measured for 72 hrs in presence of posaconazole; assay type: functional
Candida albicans [19] = assay: Antifungal activity against Candida albicans ATCC MYA-1003 measured after 48 hrs by broth microdilution analysis; assay type: functional
Candida albicans [20] = assay: Synergistic antifungal activity against Candida albicans ATCC 10231 assessed as compound MIC measured after 48 hrs in presence of ketoconazole by checkboard based microplate reader analysis; assay type: functional
Candida albicans [21] = assay: Synergistic antifungal activity against Candida albicans ATCC 10231 assessed as fluconazole MIC measured after 48 hrs by checkboard based microplate reader analysis; assay type: functional
Candida albicans [22] = assay: Additive antifungal activity against Candida albicans ATCC MYA-2876 assessed as fractional inhibitory concentration index measured for 72 hrs in presence of voriconazole; assay type: functional
Candida albicans [23] = assay: Synergistic antifungal activity against Candida albicans ATCC 10231 assessed as compound MIC measured after 48 hrs in presence of fluconazole by checkboard based microplate reader analysis; assay type: functional
Candida albicans [24] = assay: Partial synergistic antifungal activity against Candida albicans ATCC 10231 assessed as fractional inhibitory concentration index measured for 72 hrs in presence of ketoconazole; assay type: functional
Aspergillus terreus [25] = assay: Additive antifungal activity against Aspergillus terreus ATCC MYA-3633 assessed as fractional inhibitory concentration index measured for 72 hrs in presence of voriconazole; assay type: functional
Candida albicans [26] = assay: Antifungal activity against Candida albicans ATCC MYA-1237 measured after 48 hrs by broth microdilution analysis; assay type: functional
Candida albicans [27] = assay: Synergistic antifungal activity against Candida albicans ATCC 10231 assessed as compound MIC measured after 48 hrs in presence of itraconazole by checkboard based microplate reader analysis; assay type: functional
Nakaseomyces glabratus [28] = assay: Synergistic antifungal activity against Candida glabrata ATCC 2001 assessed as fractional inhibitory concentration index measured for 72 hrs in presence of posaconazole; assay type: functional
Candida albicans [29] = assay: Additive antifungal activity against Candida albicans ATCC 10231 assessed as fractional inhibitory concentration index measured for 72 hrs in presence of itraconazole; assay type: functional
Nakaseomyces glabratus [30] = assay: Antifungal activity against Candida glabrata ATCC 2001 measured after 48 hrs by broth microdilution analysis; assay type: functional
Candida albicans [31] = assay: Synergistic antifungal activity against Candida albicans ATCC 64124 assessed as compound MIC measured after 48 hrs in presence of ketoconazole by checkboard based microplate reader analysis; assay type: functional
Candida albicans [32] = assay: Additive antifungal activity against Candida albicans ATCC 90819 assessed as fractional inhibitory concentration index measured for 72 hrs in presence of posaconazole; assay type: functional
Candida albicans [33] = assay: Synergistic antifungal activity against Candida albicans ATCC 64124 assessed as compound MIC measured after 48 hrs in presence of fluconazole by checkboard based microplate reader analysis; assay type: functional
Candida albicans [34] = assay: Partial synergistic antifungal activity against Candida albicans ATCC 64124 assessed as fractional inhibitory concentration index measured for 72 hrs in presence of ketoconazole; assay type: functional
Candida albicans [35] = assay: Antifungal activity against Candida albicans ATCC 90819 measured after 48 hrs by broth microdilution analysis; assay type: functional
Candida albicans [36] = assay: Synergistic antifungal activity against Candida albicans ATCC 10231 assessed as compound MIC measured after 48 hrs in presence of voriconazole by checkboard based microplate reader analysis; assay type: functional
Candida albicans [37] = assay: Additive antifungal activity against Candida albicans ATCC 64124 assessed as fractional inhibitory concentration index measured for 72 hrs in presence of fluconazole; assay type: functional
Candida albicans [38] = assay: Antifungal activity against Candida albicans ATCC 64124 measured after 48 hrs by broth microdilution analysis; assay type: functional
Nakaseomyces glabratus [39] = assay: Additive antifungal activity against Candida glabrata ATCC 2001 assessed as fractional inhibitory concentration index measured for 72 hrs in presence of posaconazole; assay type: functional
Candida albicans [40] = assay: Additive antifungal activity against Candida albicans ATCC 10231 assessed as fractional inhibitory concentration index measured for 72 hrs in presence of fluconazole; assay type: functional
Candida albicans [41] = assay: Synergistic antifungal activity against Candida albicans ATCC 10231 assessed as itraconazole MIC measured after 48 hrs by checkboard based microplate reader analysis; assay type: functional
Candida albicans [42] = assay: Synergistic antifungal activity against Candida albicans ATCC 64124 assessed as itraconazole MIC measured after 48 hrs by checkboard based microplate reader analysis; assay type: functional
Candida albicans [43] = assay: Synergistic antifungal activity against Candida albicans ATCC 64124 assessed as ketoconazole MIC measured after 48 hrs by checkboard based microplate reader analysis; assay type: functional
Candida albicans [44] = assay: Synergistic antifungal activity against Candida albicans ATCC 10231 assessed as ketoconazole MIC measured after 48 hrs by checkboard based microplate reader analysis; assay type: functional
Candida albicans [45] = assay: Additive antifungal activity against Candida albicans ATCC 10231 assessed as fractional inhibitory concentration index measured for 72 hrs in presence of ketoconazole; assay type: functional
Candida albicans [46] = assay: Synergistic antifungal activity against Candida albicans ATCC 64124 assessed as fluconazole MIC measured after 48 hrs by checkboard based microplate reader analysis; assay type: functional

## O=C(CCCN1CCC(O)(c2ccc(Br)cc2)CC1)c1ccc(Br)cc1
Candida albicans [1]
  fractional inhibitory concentration index (FICI): 2
Candida albicans [2]
  MIC: > 64 µg/mL
Candida albicans [3]
  MIC: 16 µg/mL
Candida albicans [4]
  fractional inhibitory concentration index (FICI): 2
Candida albicans [5]
  MIC: 32 µg/mL
Candida albicans [6]
  MIC: > 64 µg/mL
Nakaseomyces glabratus [7]
  fractional inhibitory concentration index (FICI): 2
Candida albicans [8]
  MIC: 32 µg/mL
Candida albicans [9]
  fractional inhibitory concentration index (FICI): 0.63
Candida albicans [10]
  fractional inhibitory concentration index (FICI): 2
Candida albicans [11]
  MIC: > 64 µg/mL
Candida albicans [12]
  MIC: > 64 µg/mL
Candida albicans [13]
  fractional inhibitory concentration index (FICI): 2
Candida albicans [14]
  fractional inhibitory concentration index (FICI): 2
Aspergillus terreus [15]
  MIC: > 64 µg/mL
Candida albicans [16]
  fractional inhibitory concentration index (FICI): 2
Candida albicans [17]
  fractional inhibitory concentration index (FICI): 2
Candida albicans [18]
  fractional inhibitory concentration index (FICI): 2
Candida albicans [19]
  MIC: > 64 µg/mL
Candida albicans [20]
  MIC: 1 µg/mL
Candida albicans [21]
  MIC: > 32 µg/mL
Candida albicans [22]
  fractional inhibitory concentration index (FICI): 2
Candida albicans [23]
  MIC: > 64 µg/mL
Candida albicans [24]
  fractional inhibitory concentration index (FICI): 0.52
Aspergillus terreus [25]
  fractional inhibitory concentration index (FICI): 2
Candida albicans [26]
  MIC: > 64 µg/mL
Candida albicans [27]
  MIC: 64 µg/mL
Nakaseomyces glabratus [28]
  fractional inhibitory concentration index (FICI): 0.38
Candida albicans [29]
  fractional inhibitory concentration index (FICI): 1.5
Nakaseomyces glabratus [30]
  MIC: > 64 µg/mL
Candida albicans [31]
  MIC: 1 µg/mL
Candida albicans [32]
  fractional inhibitory concentration index (FICI): 2
Candida albicans [33]
  MIC: > 64 µg/mL
Candida albicans [34]
  fractional inhibitory concentration index (FICI): 0.52
Candida albicans [35]
  MIC: > 64 µg/mL
Candida albicans [36]
  MIC: 32 µg/mL
Candida albicans [37]
  fractional inhibitory concentration index (FICI): 2
Candida albicans [38]
  MIC: > 64 µg/mL
Nakaseomyces glabratus [39]
  fractional inhibitory concentration index (FICI): 0.38
Candida albicans [40]
  fractional inhibitory concentration index (FICI): 2

## CCC(C)n1ncn(-c2ccc(N3CCN(c4ccc(OCC5COC(Cn6cncn6)(c6ccc(Cl)cc6Cl)O5)cc4)CC3)cc2)c1=O (stereo not drawn) [ITRACONAZOLE]
Candida albicans [11]
  MIC: 1 µg/mL (≈ 1.42 µM)
Candida albicans [41]
  MIC: 0.25 µg/mL
Candida albicans [42]
  MIC: > 32 µg/mL
Candida albicans [38]
  MIC: > 32 µg/mL

## CC(=O)N1CCN(c2ccc(OCC3COC(Cn4ccnc4)(c4ccc(Cl)cc4Cl)O3)cc2)CC1 (stereo not drawn) [KETOCONAZOLE]
Candida albicans [11]
  MIC: 1 µg/mL (≈ 1.88 µM)
Candida albicans [43]
  MIC: 4 µg/mL
Candida albicans [44]
  MIC: 0.5 µg/mL
Candida albicans [45]
  fractional inhibitory concentration index (FICI): 2
Candida albicans [38]
  MIC: 8 µg/mL (≈ 15.1 µM)

## OC(Cn1cncn1)(Cn1cncn1)c1ccc(F)cc1F [FLUCONAZOLE]
Candida albicans [11]
  MIC: > 32 µg/mL
Candida albicans [21]
  MIC: > 32 µg/mL
Candida albicans [46]
  MIC: > 32 µg/mL
Candida albicans [38]
  MIC: > 32 µg/mL

Source: ChEMBL document CHEMBL5252541, “Repurposing antipsychotic drugs into antifungal agents: Synergistic combinations of azoles and bromperidol derivatives in the treatment of various fungal infections” (Eur J Med Chem, 2017)
